Test results reported in patent publication US10633417B2 (priority 2013, dated 2020).

What was measured:
rat α9α10 nAChR = rat α9α10 nAChR (Rattus norvegicus, UniProt P43144+Q9JLB5); settings: cited from earlier work
Sprague Dawley rats [1] = settings: rat, in vivo
Sprague-Dawley rats [2] = settings: rat, in vivo
[3] = biological target: human α9 (Ile56 to Thr) α10 nAChR (Homo sapiens, UniProt Q9GZZ6+Q9UGM1, I86T); format: cell-based
Sprague-Dawley rats [4] = settings: rat, in vivo; remark: listed apart in the source
Sprague-Dawley rats [5] = settings: rat, in vivo; remark: listed apart in the source
[6] = biological target: rat α9 (Thr56 to Ile) α10 nAChR (Rattus norvegicus, UniProt P43144+Q9JLB5, T86I); format: cell-based
Sprague Dawley rats [7] = settings: rat, in vivo; remark: listed apart in the source
Sprague-Dawley rats [8] = settings: rat, in vivo; remark: listed apart in the source

Chain of rat α9α10 nAChR (P43144 26-479 limits assumed): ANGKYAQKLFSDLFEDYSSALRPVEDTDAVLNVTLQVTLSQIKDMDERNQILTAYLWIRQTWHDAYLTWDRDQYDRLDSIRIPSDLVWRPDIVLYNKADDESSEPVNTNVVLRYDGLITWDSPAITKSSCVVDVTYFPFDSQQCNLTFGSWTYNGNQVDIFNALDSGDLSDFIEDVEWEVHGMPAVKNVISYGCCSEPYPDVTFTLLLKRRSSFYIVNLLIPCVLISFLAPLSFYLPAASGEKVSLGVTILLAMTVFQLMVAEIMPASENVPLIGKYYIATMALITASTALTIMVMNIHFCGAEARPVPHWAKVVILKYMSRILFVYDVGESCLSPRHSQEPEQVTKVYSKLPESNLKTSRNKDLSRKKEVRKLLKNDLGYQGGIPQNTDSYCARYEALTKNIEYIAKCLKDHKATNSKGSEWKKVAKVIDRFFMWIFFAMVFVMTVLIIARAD
Chain of rat α9α10 nAChR (Q9JLB5 25-447 limits assumed): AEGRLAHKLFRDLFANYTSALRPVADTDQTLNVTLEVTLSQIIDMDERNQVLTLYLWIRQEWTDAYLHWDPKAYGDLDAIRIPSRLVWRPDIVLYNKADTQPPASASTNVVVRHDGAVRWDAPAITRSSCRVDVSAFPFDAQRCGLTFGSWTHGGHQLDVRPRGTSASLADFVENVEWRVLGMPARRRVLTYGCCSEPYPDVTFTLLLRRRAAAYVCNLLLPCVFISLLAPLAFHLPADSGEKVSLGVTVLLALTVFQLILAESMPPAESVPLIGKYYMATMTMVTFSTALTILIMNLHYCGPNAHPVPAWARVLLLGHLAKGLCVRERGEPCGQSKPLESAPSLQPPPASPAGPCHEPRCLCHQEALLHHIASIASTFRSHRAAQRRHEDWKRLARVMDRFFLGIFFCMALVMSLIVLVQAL
Chain of human α9 (Ile56 to Thr) α10 nAChR (Q9UGM1 26-479 I86T limits assumed, stated change not applied): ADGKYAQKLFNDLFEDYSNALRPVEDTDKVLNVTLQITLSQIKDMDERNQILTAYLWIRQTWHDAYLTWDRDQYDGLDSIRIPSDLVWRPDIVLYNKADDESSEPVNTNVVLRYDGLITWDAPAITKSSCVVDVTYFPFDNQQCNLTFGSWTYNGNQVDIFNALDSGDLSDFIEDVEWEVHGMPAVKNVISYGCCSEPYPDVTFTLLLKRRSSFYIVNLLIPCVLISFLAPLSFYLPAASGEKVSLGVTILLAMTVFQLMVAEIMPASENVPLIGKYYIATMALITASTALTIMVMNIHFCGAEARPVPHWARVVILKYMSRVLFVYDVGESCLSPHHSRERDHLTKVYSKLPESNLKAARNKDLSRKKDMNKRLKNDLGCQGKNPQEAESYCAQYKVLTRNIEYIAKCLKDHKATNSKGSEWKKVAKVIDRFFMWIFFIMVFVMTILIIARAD
Chain of human α9 (Ile56 to Thr) α10 nAChR (Q9GZZ6 25-450 limits assumed, stated change not applied): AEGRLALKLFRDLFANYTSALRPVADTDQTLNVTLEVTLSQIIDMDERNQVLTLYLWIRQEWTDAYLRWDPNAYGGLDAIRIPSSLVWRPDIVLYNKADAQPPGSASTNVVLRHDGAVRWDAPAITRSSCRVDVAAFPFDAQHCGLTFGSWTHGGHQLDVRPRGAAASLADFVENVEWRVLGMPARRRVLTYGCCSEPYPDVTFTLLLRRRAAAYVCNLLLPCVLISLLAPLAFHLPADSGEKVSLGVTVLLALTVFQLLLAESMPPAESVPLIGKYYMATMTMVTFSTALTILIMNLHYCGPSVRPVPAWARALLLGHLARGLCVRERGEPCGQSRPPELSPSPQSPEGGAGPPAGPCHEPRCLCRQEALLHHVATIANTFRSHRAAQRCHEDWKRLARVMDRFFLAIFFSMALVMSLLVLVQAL
Chain of rat α9 (Thr56 to Ile) α10 nAChR (P43144 26-479 T86I limits assumed, stated change not applied): as the sequence (P43144 26-479 limits assumed) above, with T61I counted along it
Chain of rat α9 (Thr56 to Ile) α10 nAChR (Q9JLB5 25-447 limits assumed, stated change not applied): as the sequence (Q9JLB5 25-447 limits assumed) above

Row | Substance | potency on the human versus rat α9α10 nAChR (rat α9α10 nAChR) | mechanical allodynia in the FTTI model, acute treatment (Sprague Dawley rats [1]) | prevention of OXA-induced cold allodynia, day 7 (Sprague-Dawley rats [2]) | prevention of OXA-induced cold allodynia, day 14 and 21 (Sprague-Dawley rats [2]) | RgIA potency on human receptor with α9 Ile56 to Thr [3] | increase in RgIA potency on human receptor with α9 Ile56 to Thr [3] [log] | activity on mechanical allodynia (von Frey), days 14 and 21 (Sprague-Dawley rats [4]) | analgesic effect (von Frey), day 7, 24 h later (Sprague-Dawley rats [4]) | efficacy on mechanical hyperalgesia 24 h after injection (Sprague-Dawley rats [5]) | pain threshold (mechanical hyperalgesia) 30 min after injection (Sprague-Dawley rats [5]) | prevention of OXA-induced mechanical hyperalgesia (Sprague-Dawley rats [5]) | RgIA potency on rat receptor with Thr56 to Ile in α9 [6] | burn-induced thermal hyperalgesia (Hargraves method) (Sprague Dawley rats [7]) | thermal hyperalgesia in the FTTI model, acute treatment (Sprague Dawley rats [7]) | analgesic effect in OXA chemotherapy induced neuropathic pain (Sprague-Dawley rats [8])
1 | GCCSDPRCRYRCR [RgIA] | ~170 fold | effectively reduces | able to prevent OXA-induced cold allodynia | able to prevent OXA-induced cold allodynia | increase in RgIA potency on the human receptor to levels found in rat | 2 | active | not observed | still significant | acutely increased pain threshold | significantly prevented | reduction in RgIA potency on the rat receptor to levels found with the human receptor | significantly reduced | effectively reduces | significant analgesic effects on days 14 and 21
2 | Vc1.1 | significantly less potent | – | – | – | – | – | – | – | – | – | – | – | – | – | –
